Data: ChEMBL document CHEMBL4715829, “Heterodimeric Rifampicin-Tobramycin conjugates break intrinsic resistance of Pseudomonas aeruginosa to doxycycline and chloramphenicol in vitro and in a Galleria mellonella in vivo model” (Eur J Med Chem, 2019)
Values after ≈ are worked out from the molar mass of the structure shown.

Tests used:
Pseudomonas aeruginosa [1] = experiment: Antibacterial activity against Pseudomonas aeruginosa 101243 assessed as fractional inhibitory concentration index in presence of doxycycline incubated for 18 hrs by broth microdilution assay; assay type: functional
Pseudomonas aeruginosa [2] = experiment: Antibacterial activity against Pseudomonas aeruginosa 750 harboring efflux mutant assessed as reduction in bacterial growth incubated for 18 hrs by broth microdilution assay; assay type: functional
Pseudomonas aeruginosa [3] = experiment: Antibacterial activity against Pseudomonas aeruginosa ATCC 27853 assessed as reduction in bacterial growth incubated for 18 hrs by broth microdilution assay; assay type: functional
Pseudomonas aeruginosa [4] = experiment: Antibacterial activity against Pseudomonas aeruginosa 259-96918 assessed as fractional inhibitory concentration index in presence of chloramphenicol incubated for 18 hrs by broth microdilution assay; assay type: functional
Escherichia coli [5] = experiment: Antibacterial activity against gentamicin, tobramycin, ciprofloxacin-resistant Escherichia coli ATCC 97615 harboring aac(3')IIa gene assessed as reduction in bacterial growth incubated for 18 hrs by broth microdilution assay; assay type: functional
Pseudomonas aeruginosa [6] = experiment: Antibacterial activity against Pseudomonas aeruginosa 262-101856 assessed as fractional inhibitory concentration index in presence of chloramphenicol incubated for 18 hrs by broth microdilution assay; assay type: functional
Pseudomonas aeruginosa [7] = experiment: Antibacterial activity against Pseudomonas aeruginosa 200 harboring efflux mutant assessed as reduction in bacterial growth incubated for 18 hrs by broth microdilution assay; assay type: functional
Streptococcus pneumoniae = experiment: Antibacterial activity against Streptococcus pneumoniae ATCC 49619 assessed as reduction in bacterial growth incubated for 18 hrs by broth microdilution assay; assay type: functional
Pseudomonas aeruginosa [8] = experiment: Antibacterial activity against Pseudomonas aeruginosa 264-101354 assessed as fractional inhibitory concentration index in presence of chloramphenicol incubated for 18 hrs by broth microdilution assay; assay type: functional
Pseudomonas aeruginosa [9] = experiment: Antibacterial activity against Pseudomonas aeruginosa 264-101354 assessed as reduction in bacterial growth incubated for 18 hrs by broth microdilution assay; assay type: functional
Pseudomonas aeruginosa [10] = experiment: Antibacterial activity against Pseudomonas aeruginosa 100036 assessed as fractional inhibitory concentration index in presence of doxycycline incubated for 18 hrs by broth microdilution assay; assay type: functional
Pseudomonas aeruginosa [11] = experiment: Antibacterial activity against gentamicin, tobramycin-resistant Pseudomonas aeruginosa CANWARD 96846 assessed as reduction in bacterial growth incubated for 18 hrs by broth microdilution assay; assay type: functional
Pseudomonas aeruginosa [12] = experiment: Antibacterial activity against Pseudomonas aeruginosa 260-97103 assessed as reduction in bacterial growth incubated for 18 hrs by broth microdilution assay; assay type: functional
Pseudomonas aeruginosa [13] = experiment: Antibacterial activity against Pseudomonas aeruginosa 264-101354 assessed as fractional inhibitory concentration index in presence of doxycycline incubated for 18 hrs by broth microdilution assay; assay type: functional
Escherichia coli [14] = experiment: Antibacterial activity against gentamicin-resistant Escherichia coli CAN-ICU 61714 assessed as reduction in bacterial growth incubated for 18 hrs by broth microdilution assay; assay type: functional
Pseudomonas aeruginosa [15] = experiment: Antibacterial activity against Pseudomonas aeruginosa 100036 assessed as fractional inhibitory concentration index in presence of chloramphenicol incubated for 18 hrs by broth microdilution assay; assay type: functional
Pseudomonas aeruginosa [16] = experiment: Antibacterial activity against Pseudomonas aeruginosa PAO1 assessed as reduction in bacterial growth by measuring clindamycin MIC at <=10 uM in presence of clindamycin incubated for 18 hrs by broth microdilution assay based checkerboard assay (reference value: 1024 microg/ml); assay type: functional; conditions: dose microM <=10
Pseudomonas aeruginosa [17] = experiment: Antibacterial activity against Pseudomonas aeruginosa PAO1 assessed as fractional inhibitory concentration index in presence of Moxifloxacin incubated for 18 hrs by broth microdilution assay based checkerboard assay; assay type: functional
Pseudomonas aeruginosa [18] = experiment: Antibacterial activity against Pseudomonas aeruginosa PAO1 assessed as fractional inhibitory concentration index in presence of Fosfomycin incubated for 18 hrs by broth microdilution assay based checkerboard assay; assay type: functional
Pseudomonas aeruginosa [19] = experiment: Antibacterial activity against Pseudomonas aeruginosa PAO1 assessed as reduction in bacterial growth by measuring ceftazidime MIC at <=10 uM in presence of ceftazidime incubated for 18 hrs by broth microdilution assay based checkerboard assay (reference value: 2 microg/ml); assay type: functional; conditions: dose microM <=10
Pseudomonas aeruginosa [20] = experiment: Antibacterial activity against Pseudomonas aeruginosa PAO1 assessed as fractional inhibitory concentration index in presence of Colistin incubated for 18 hrs by broth microdilution assay based checkerboard assay; assay type: functional
Pseudomonas aeruginosa [21] = experiment: Antibacterial activity against Pseudomonas aeruginosa PAO1 assessed as reduction in bacterial growth by measuring doxycycline MIC at <=[…] uM in presence of doxycycline incubated for 18 hrs by broth microdilution assay based checkerboard assay (reference value: […] microg/ml); assay type: functional; conditions: dose microM <=10
Pseudomonas aeruginosa [22] = experiment: Antibacterial activity against Pseudomonas aeruginosa PAO1 assessed as reduction in bacterial growth by measuring fosfomycin MIC at <=[…] uM in presence of fosfomycin incubated for 18 hrs by broth microdilution assay based checkerboard assay (reference value: […] microg/ml); assay type: functional; conditions: dose microM <=10
Pseudomonas aeruginosa [23] = experiment: Antibacterial activity against Pseudomonas aeruginosa PAO1 assessed as reduction in bacterial growth by measuring cefotaxime MIC at <=[…] uM in presence of cefotaxime incubated for 18 hrs by broth microdilution assay based checkerboard assay (reference value: […] microg/ml); assay type: functional; conditions: dose microM <=10
Pseudomonas aeruginosa [24] = experiment: Antibacterial activity against Pseudomonas aeruginosa PAO1 assessed as fractional inhibitory concentration index in presence of Novobiocin incubated for 18 hrs by broth microdilution assay based checkerboard assay; assay type: functional
[25] = Cytotoxicity against human HEK293 cells assessed as cell viability at <10 uM incubated for 48 hrs by prestoblue assay; assay type: cell-based; conditions: read-out: Activity
Pseudomonas aeruginosa [26] = experiment: Antibacterial activity against Pseudomonas aeruginosa PAO1 assessed as reduction in bacterial growth by measuring minocycline MIC at <=10 uM in presence of minocycline incubated for 18 hrs by broth microdilution assay based checkerboard assay (reference value: 8 microg/ml); assay type: functional; conditions: dose microM <=10
Pseudomonas aeruginosa [27] = experiment: Antibacterial activity against Pseudomonas aeruginosa PAO1 assessed as fractional inhibitory concentration index in presence of Cefotaxime incubated for 18 hrs by broth microdilution assay based checkerboard assay; assay type: functional
Pseudomonas aeruginosa [28] = experiment: Antibacterial activity against Pseudomonas aeruginosa PAO1 assessed as reduction in bacterial growth by measuring vancomycin MIC at <=10 uM in presence of vancomycin incubated for 18 hrs by broth microdilution assay based checkerboard assay (reference value: 256 microg/ml); assay type: functional; conditions: dose microM <=10
Pseudomonas aeruginosa [29] = experiment: Antibacterial activity against Pseudomonas aeruginosa PAO1 assessed as reduction in bacterial growth by measuring aztreonam MIC at <=10 uM in presence of aztreonam incubated for 18 hrs by broth microdilution assay based checkerboard assay (reference value: 4 microg/ml); assay type: functional; conditions: dose microM <=10
Pseudomonas aeruginosa [30] = experiment: Antibacterial activity against Pseudomonas aeruginosa PAO1 assessed as reduction in bacterial growth by measuring nitrofurantoin MIC at <=10 uM in presence of nitrofurantoin incubated for 18 hrs by broth microdilution assay based checkerboard assay (reference value: 512 microg/ml); assay type: functional; conditions: dose microM <=10
Pseudomonas aeruginosa [31] = experiment: Antibacterial activity against Pseudomonas aeruginosa PAO1 assessed as fractional inhibitory concentration index in presence of Tobramycin incubated for 18 hrs by broth microdilution assay based checkerboard assay; assay type: functional
Pseudomonas aeruginosa [32] = experiment: Antibacterial activity against Pseudomonas aeruginosa PAO1 assessed as fractional inhibitory concentration index in presence of Erythromycin incubated for 18 hrs by broth microdilution assay based checkerboard assay; assay type: functional
Pseudomonas aeruginosa [33] = experiment: Antibacterial activity against Pseudomonas aeruginosa PAO1 assessed as reduction in bacterial growth by measuring rifampicin MIC at <=[…] uM in presence of rifampicin incubated for 18 hrs by broth microdilution assay based checkerboard assay (reference value: […] microg/ml); assay type: functional; conditions: dose microM <=10
Pseudomonas aeruginosa [34] = experiment: Antibacterial activity against Pseudomonas aeruginosa PAO1 assessed as fractional inhibitory concentration index in presence of Vancomycin incubated for 18 hrs by broth microdilution assay based checkerboard assay; assay type: functional

Row | SMILES | fractional inhibitory concentration index (FICI) (Pseudomonas aeruginosa [1]) | MIC (Pseudomonas aeruginosa [2]) | MIC (Pseudomonas aeruginosa [3]) | fractional inhibitory concentration index (FICI) (Pseudomonas aeruginosa [4]) | MIC (Escherichia coli [5]) | fractional inhibitory concentration index (FICI) (Pseudomonas aeruginosa [6]) | MIC (Pseudomonas aeruginosa [7]) | MIC (Streptococcus pneumoniae) | fractional inhibitory concentration index (FICI) (Pseudomonas aeruginosa [8]) | MIC (Pseudomonas aeruginosa [9]) | fractional inhibitory concentration index (FICI) (Pseudomonas aeruginosa [10]) | MIC (Pseudomonas aeruginosa [11]) | MIC (Pseudomonas aeruginosa [12]) | fractional inhibitory concentration index (FICI) (Pseudomonas aeruginosa [13]) | MIC (Escherichia coli [14]) | fractional inhibitory concentration index (FICI) (Pseudomonas aeruginosa [15]) | MIC (Pseudomonas aeruginosa [16]) | fractional inhibitory concentration index (FICI) (Pseudomonas aeruginosa [17]) | fractional inhibitory concentration index (FICI) (Pseudomonas aeruginosa [18]) | MIC (Pseudomonas aeruginosa [19]) | other results
1 | NC[C@H]1O[C@H](O[C@H]2[C@H](O)[C@@H](O[C@H]3O[C@H](CO)[C@@H](O)[C@H](N)[C@H]3O)[C@H](N)C[C@@H]2N)[C@H](N)C[C@@H]1O [TOBRAMYCIN] | 1.5 | 0.5 µg/mL (≈ 1.07 µM) | 1 µg/mL (≈ 2.14 µM) | 1.25 | 128 µg/mL (≈ 274 µM) | <=1 | 0.5 µg/mL (≈ 1.07 µM) | 2 µg/mL (≈ 4.28 µM) | 1 | 128 µg/mL (≈ 274 µM) | 1.5 | 256 µg/mL (≈ 548 µM) | 32 µg/mL (≈ 68.4 µM) | 1.5 | 8 µg/mL (≈ 17.1 µM) | 1.5 |  |  |  |  | 
2 | CO[C@H]1/C=C/O[C@@]2(C)Oc3c(C)c(O)c4c(O)c(c(/C=N/N5CCN(Cc6cn(CCCCCCCCCCCCO[C@@H]7[C@@H](O[C@H]8O[C@H](CO)[C@@H](O)[C@H](N)[C@H]8O)[C@H](N)C[C@H](N)[C@H]7O[C@H]7O[C@H](CN)[C@@H](O)C[C@H]7N)nn6)CC5)c(O)c4c3C2=O)NC(=O)/C(C)=C\C=C\[C@H](C)[C@H](O)[C@@H](C)[C@@H](O)[C@@H](C)[C@H](OC(C)=O)[C@@H]1C.O=C(O)C(F)(F)F.O=C(O)C(F)(F)F.O=C(O)C(F)(F)F.O=C(O)C(F)(F)F.O=C(O)C(F)(F)F | 0.094 | 128 µg/mL | > 32 µg/mL | <0.625 | 32 µg/mL | <0.125 | 128 µg/mL | 8 µg/mL | 0.063 | 256 µg/mL | 0.07 | > 32 µg/mL | > 128 µg/mL | 0.078 | > 32 µg/mL | 0.067 | 256 µg/mL | 1.03 | 0.28 | 2 µg/mL | fractional inhibitory concentration index (FICI) (Pseudomonas aeruginosa [20]): 0.26; MIC (Pseudomonas aeruginosa [21]): 1 µg/mL; MIC (Pseudomonas aeruginosa [22]): 4 µg/mL; MIC (Pseudomonas aeruginosa [23]): 16 µg/mL; fractional inhibitory concentration index (FICI) (Pseudomonas aeruginosa [24]): 0.28; viability at 48 h [25]: > 90%; MIC (Pseudomonas aeruginosa [26]): 2 µg/mL; fractional inhibitory concentration index (FICI) (Pseudomonas aeruginosa [27]): 1.03; MIC (Pseudomonas aeruginosa [28]): 128 µg/mL; MIC (Pseudomonas aeruginosa [29]): 4 µg/mL; MIC (Pseudomonas aeruginosa [30]): 256 µg/mL; fractional inhibitory concentration index (FICI) (Pseudomonas aeruginosa [31]): 1.03; fractional inhibitory concentration index (FICI) (Pseudomonas aeruginosa [32]): 0.06; MIC (Pseudomonas aeruginosa [33]): 2 µg/mL; fractional inhibitory concentration index (FICI) (Pseudomonas aeruginosa [34]): 0.53
3 | CO[C@H]1/C=C/O[C@@]2(C)Oc3c(C)c(O)c4c(O)c(c(/C=N/N5CCN(Cc6cn(CCCCCCO[C@@H]7[C@@H](O[C@H]8O[C@H](CO)[C@@H](O)[C@H](N)[C@H]8O)[C@H](N)C[C@H](N)[C@H]7O[C@H]7O[C@H](CN)[C@@H](O)C[C@H]7N)nn6)CC5)c(O)c4c3C2=O)NC(=O)/C(C)=C\C=C\[C@H](C)[C@H](O)[C@@H](C)[C@@H](O)[C@@H](C)[C@H](OC(C)=O)[C@@H]1C.Cl.Cl.Cl.Cl.Cl | 0.125 | 256 µg/mL | > 32 µg/mL | <0.375 | > 32 µg/mL | <0.125 | 128 µg/mL | 2 µg/mL | 0.063 | 256 µg/mL | 0.078 | > 32 µg/mL | > 128 µg/mL | 0.064 | > 32 µg/mL | 0.066 | 256 µg/mL | 0.53 | 0.15 | 2 µg/mL | fractional inhibitory concentration index (FICI) (Pseudomonas aeruginosa [20]): 0.53; MIC (Pseudomonas aeruginosa [21]): 0.5 µg/mL; MIC (Pseudomonas aeruginosa [22]): 2 µg/mL; MIC (Pseudomonas aeruginosa [23]): 16 µg/mL; fractional inhibitory concentration index (FICI) (Pseudomonas aeruginosa [24]): 0.28; viability at 48 h [25]: > 90%; MIC (Pseudomonas aeruginosa [26]): 2 µg/mL; fractional inhibitory concentration index (FICI) (Pseudomonas aeruginosa [27]): 1.03; MIC (Pseudomonas aeruginosa [28]): 256 µg/mL; MIC (Pseudomonas aeruginosa [29]): 4 µg/mL; MIC (Pseudomonas aeruginosa [30]): 256 µg/mL; fractional inhibitory concentration index (FICI) (Pseudomonas aeruginosa [31]): 1.03; fractional inhibitory concentration index (FICI) (Pseudomonas aeruginosa [32]): 0.15; MIC (Pseudomonas aeruginosa [33]): 4 µg/mL; fractional inhibitory concentration index (FICI) (Pseudomonas aeruginosa [34]): 1.03
